Source: patent US7196110B2, “N-substituted tricyclic 3-aminopyrazoles as inhibitors for the treatment of cell proliferative disorders” (Janssen Phamaceutica N.V., priority 2002, dated 2007)

Molecular target: T1, PDGF-receptor beta enzyme comprising the tyrosine kinase domain (Homo sapiens, UniProt P09619)
T1 construct: from amino acid 545 to 1106 of GenBank Access NO: AAA36427
Experiment: Inhibition of PDGF-receptor kinase activity (cell-free, PLC1 peptide, 33P Flashplate)
Assay type: biochemical
Settings: for inhibition at 10 µM: PDGF-R kinase activity, compound at 10 uM, read-out: Percent Inhibition @ 10 uM; for IC50: read-out: IC50 (μM) on PDGF-R kinase activity
Procedure, shortened: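 The IC50 is the inhibitor level halving kinase activity relative to inhibitor-free wells, measured as 33P captured on a streptavidin-bound biotin-PLC1 peptide. The reaction ran 60 min at 30 °C in pH 8 Tris buffer with 1 mM DTT, 5 μM ATP and the 545–1106 kinase-domain enzyme.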

T1 sequence (P09619 545-1106): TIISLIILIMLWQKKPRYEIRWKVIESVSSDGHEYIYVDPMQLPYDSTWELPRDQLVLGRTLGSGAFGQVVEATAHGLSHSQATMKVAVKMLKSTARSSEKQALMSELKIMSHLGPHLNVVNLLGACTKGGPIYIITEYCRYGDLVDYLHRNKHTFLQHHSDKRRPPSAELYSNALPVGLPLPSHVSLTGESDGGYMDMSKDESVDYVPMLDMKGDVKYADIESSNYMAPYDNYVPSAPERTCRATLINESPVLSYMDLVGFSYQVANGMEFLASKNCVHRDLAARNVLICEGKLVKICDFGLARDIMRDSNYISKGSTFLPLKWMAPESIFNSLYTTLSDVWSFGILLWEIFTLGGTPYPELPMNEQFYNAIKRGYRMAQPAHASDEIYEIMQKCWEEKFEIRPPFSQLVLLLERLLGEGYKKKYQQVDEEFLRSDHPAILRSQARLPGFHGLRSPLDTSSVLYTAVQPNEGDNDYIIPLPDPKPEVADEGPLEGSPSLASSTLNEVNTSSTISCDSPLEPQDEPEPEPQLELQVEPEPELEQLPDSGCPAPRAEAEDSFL

SMILES | inhibition at 10 µM [%] | IC50 [µM]
COc1cc2c(cc1OC)-c1n[nH]c(Nc3ncccc3Br)c1C2 [Compound 582, (3-Bromo-pyridin-2-yl)-(6,7-dimethoxy-2,4-dihydro-indeno[1,2-c]pyrazol-3-yl)-amine] | 82.5 | 1.25
COc1cc2c(cc1OC)-c1n[nH]c(Nc3ccc(Br)cn3)c1C2 [Compound 583, (5-Bromo-pyridin-2-yl)-(6,7-dimethoxy-2,4-dihydro-indeno[1,2-c]pyrazol-3-yl)-amine] | 82 | 1.1
COc1cc2c(cc1OC)-c1n[nH]c(Nc3cc(C)cc(C)n3)c1C2 [Compound 588, (6,7-Dimethoxy-2,4-dihydro-indeno[1,2-c]pyrazol-3-yl)-(4,6-dimethyl-pyridin-2-yl)-amine] | 103 | 0.556
COc1cc2c(cc1OC)-c1n[nH]c(N(c3cccc(F)c3)[C@@H]3O[C@H](C(=O)O)[C@@H](O)[C@H](O)[C@H]3O)c1C2 [Compound 591, 6-[(6,7-Dimethoxy-2,4-dihydro-indeno[1,2-c]pyrazol-3-yl)-(3-fluoro-phenyl)-amino]-3,4,5-trihydroxy-tetrahydro-pyran-2-carboxylic acid] | 96 | 0.662
COc1cc2c(cc1OC)-c1n[nH]c(Nc3cccc(C(=O)NCCOCCOCCOCCNC(=O)CCCCC4SCC5NC(=O)NC54)c3)c1C2 (stereo not shown) [Compound 601, 3-(6,7-Dimethoxy-2,4-dihydro-indeno[1,2-c]pyrazol-3-ylamino)-N-{2-[2-(2-{2-[5-(2-oxo-hexahydro-thieno[3,4-d]imidazol-6-yl)-pentanoylamino]-ethoxy}-ethoxy)-ethoxy]-ethyl}-benzamide] | 89 | 2.29

Now from value to compound:

inhibition at 10 µM [%] | IC50 [µM] | SMILES
93 | 0.126 | CNC(=S)n1nc2c(c1Nc1cccc(F)c1)Cc1cc(OC)c(OC)cc1-2 [Compound 580, 3-(3-Fluoro-phenylamino)-6,7-dimethoxy-4H-indeno[1,2-c]pyrazole-2-carbothioic acid methylamide]
90.5 | 1.14 | CNC(=S)n1nc(Nc2cccc(F)c2)c2c1-c1cc(OC)c(OC)cc1C2 [Compound 581, 3-(3-Fluoro-phenylamino)-6,7-dimethoxy-4H-indeno[1,2-c]pyrazole-1-carbothioic acid methylamide]
109 | 0.0111 | COc1cc2c(cc1OC)-c1n[nH]c(Nc3cccc(OC(C)C)c3)c1C2 [Compound 584, (6,7-Dimethoxy-2,4-dihydro-indeno[1,2-c]pyrazol-3-yl)-(3-isopropoxy-phenyl)-amine]
86 | 1.7 | COc1cc2c(cc1OC)-c1n[nH]c(Nc3ncccc3C)c1C2 [Compound 587, (6,7-Dimethoxy-2,4-dihydro-indeno[1,2-c]pyrazol-3-yl)-(3-methyl-pyridin-2-yl)-amine]
64 | 0.0156 | CCOc1cc2c(cc1OCC)-c1n[nH]c(Nc3cccc(F)c3)c1C2 [Compound 594, (6,7-Diethoxy-2,4-dihydro-indeno[1,2-c]pyrazol-3-yl)-(3-fluoro-phenyl)-amine]
0 | 98.4 | CCCCCCCCCCCCCCCNC(=O)n1nc2c(c1Nc1cccc(F)c1)Cc1cc(OC)c(OC)cc1-2 [Compound 598, 3-(3-Fluoro-phenylamino)-6,7-dimethoxy-4H-indeno[1,2-c]pyrazole-2-carboxylic acid pentadecylamide]
40 | – | COC(=O)Cn1nc2c(c1Nc1cccc(F)c1)Cc1cc(OC)c(OC)cc1-2 [Compound 602, [3-(3-Fluoro-phenylamino)-6,7-dimethoxy-4H-indeno[1,2-c]pyrazol-2-yl]-acetic acid methyl ester]
79.5 | 2.13 | COc1cc2c(cc1OC)-c1nn(C(=O)NCCOCCOCCO)c(Nc3cccc(F)c3)c1C2 [Compound 604, 3-(3-Fluoro-phenylamino)-6,7-dimethoxy-4H-indeno[1,2-c]pyrazole-2-carboxylic acid {2-[2-(2-hydroxy-ethoxy)-ethoxy]-ethyl}-amide]
